Assay: xn = mol fraction of the nth substance listed
Settings: 298.15 K, 101 kPa

Structure (SMILES)	viscosity (x1 = 0.0522) [mPa·s]	viscosity (x1 = 0.1818) [mPa·s]	viscosity (x1 = 0.2982) [mPa·s]	viscosity (x1 = 0.4204) [mPa·s]	viscosity (x1 = 0.4752) [mPa·s]	viscosity (x1 = 0.5937) [mPa·s]	viscosity (x1 = 0.6953) [mPa·s]	viscosity (x1 = 0.7954) [mPa·s]	viscosity (x1 = 0.8933) [mPa·s]	viscosity (x2 = 0.0793) [mPa·s]	viscosity (x2 = 0.1393) [mPa·s]	viscosity (x2 = 0.2058) [mPa·s]	viscosity (x2 = 0.2578) [mPa·s]	viscosity (x2 = 0.345) [mPa·s]	viscosity (x2 = 0.384) [mPa·s]	viscosity (x2 = 0.4122) [mPa·s]	viscosity (x2 = 0.5622) [mPa·s]	viscosity (x2 = 0.688) [mPa·s]	viscosity (x2 = 0.7967) [mPa·s]	viscosity (x2 = 0.8984) [mPa·s]
CCOC(C)=O + CCCC[n+]1ccn(C)c1.O=S(=O)([N-]S(=O)(=O)C(F)(F)F)C(F)(F)F	44.4	30.6	21.1	13.67	10.91	6.54	3.93	2.21	1.105	–	–	–	–	–	–	–	–	–	–	–
CCCC[n+]1ccn(C)c1.O=S(=O)([N-]S(=O)(=O)C(F)(F)F)C(F)(F)F + CCO	–	–	–	–	–	–	–	–	–	42.6	36.8	31.4	27.3	21.6	19.4	17.91	11.15	7.11	4.36	2.46
